The values below come from patent publication US20220306659A1, “COMPOUND INHIBITING AND INDUCING DEGRADATION OF EGFR AND ALK” (BEIJING TIDE PHARMACEUTICAL CO., LTD., priority 2019, published 2022).

The structures appear in SMILES notation.

For one test, the target named is EGFR^Del19/T790M/C797S (Homo sapiens, UniProt P00533, C797S/DEL746-750/T790M). Nature of the test: EGFR inhibitory activity assay (TK-substrate-biotin/ATP, 665/615 ratio). In kind it is biochemical. As to conditions: kinase inhibition. Here is the method:
EGFR Inhibitory Activity Assay
(2) The plate was sealed, and centrifuged at 1,000 g for 1 min;
(4) 5 μl of the 2×EGFR protein working solution was added to the 384-well plate from step (2), centrifuged at 1,000 g for 30 s, and allowed to stand at room temperature (mixed thoroughly) for 10 min;
(6) 5 µL of the TK-substrate-biotin and ATP (the mixture prepared in step (5)) was added to the 384-well plate from step (4) to initiate the reaction;
(7) The mixture was centrifuged at 1,000 g for 30 s; the plate was sealed, and allowed to stand (and reacted) at room temperature for 40 min;
(10) The mixture was centrifuged at 1,000 g for 30 s, and allowed to stand (reacted) at room temperature for 1 h;
(§1) Formula of inhibition rate (%): […]
(§2) The nonlinear regression curve (dose response-variable slope) between the value of inhibition rate (%) and the logarithm of compound concentration was fitted with graphpad prism 8.0, the effect dose curve of compound was drawn, and the IC50 value was calculated.

Another test addresses T1, Ba/F3(EML4-ALK) cells (Homo sapiens, UniProt Q9UM73).
T1 construct: fused on or other part: Q9HC35 (Echinoderm microtubule-associated protein-like 4)
Nature of the test: Assay of activity on Ba/F3(EML4-ALK) cells (CTG, 72 h). Particulars: read-out: IC50 (nM) Ba/F3(EML4-ALK). In kind it is cell-based. In outline:
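Ba/F3(EML4-ALK) cells, 700 per well, were exposed to 3-fold serial compound dilutions for 72 h at 37° C, 5% CO2, and viability was then read by CTG luminescence.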

A further test deals with ALK (Homo sapiens, UniProt Q9UM73). Nature of the test: Assay of activity on ALK kinase. In kind it is biochemical. As to conditions: kinase inhibition. Here is the method:
(§3) Assay of activity on ALK kinase
(§4) (1) A compound stock solution was prepared;
(§5) (2) The compound stock solution was diluted 3× to obtain a compound dilution;
(§6) (5) 5 μl of the 2× kinase working solution was added to the reaction plate, centrifuged at 1,000 rpm for 1 min, and incubated at 25° C. for 15 min;
(§7) (7) 5 μl of the TK-substrate-biotin and ATP (the mixture prepared in step (6)) was added to initiate the reaction;
(§8) (8) The mixture was centrifuged at 1,000 g for 30 s; the plate was sealed, and incubated at 25° C. for 60 min;
(§9) (11) The mixture was centrifuged at 1,000 g for 1 min, and incubated at 25° C. for 60 min;
as §1, §2
(§10) Y=Bottom+(Top−Bottom)/(1+10^((LogIC50−X)*Hill Slope))
(§11) X-axis: logarithm of compound concentration; Y axis: inhibition rate ([…])

For the next test, the target named is ALK^G1202R (Homo sapiens, UniProt Q9UM73, G1202R). Nature of the test: Assay of activity on ALK kinase. The test is classed as biochemical. Particulars: kinase inhibition. How it is done:
as §3, §4, §5, §6, §7, §8, §9, §1, §2, §10, §11

For test [1], the target named is Ba/F3(EGFR^Del19/T790M/C797S) cells (Homo sapiens, UniProt P00533, DEL746-750/T790M/C797S, cells depend on it). Nature of the test: Assay of activity on Ba/F3 cells (CTG, 72 h). The test is classed as cell-based. As to conditions: read-out: IC50 (nM) Ba/F3 (EGFR^Del19/T790M/C797S). A digest of the protocol:
(§12)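 Ba/F3 cells dependent on each EGFR triple mutant were exposed to 3-fold compound dilutions for 72 h at 37° C, 5% CO2, with CellTiter-Glo luminescence as the read-out.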

In the next test the target is EGFR^L858R/T790M/C797S (Homo sapiens, UniProt P00533, C797S/L858R/T790M). Nature of the test: EGFR inhibitory activity assay (TK-substrate-biotin/ATP, 665/615 ratio). The test is classed as biochemical. As to conditions: kinase inhibition. In outline:
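HTRF kinase assay: enzyme preincubated with compound 10 min at room temperature, then reacted with biotinylated TK substrate and ATP for 40 min at room temperature.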

The target of test [2] is Ba/F3(EGFR^L858R/T790M/C797S) cells (Homo sapiens, UniProt P00533, T790M/C797S/L858R, cells depend on it). Nature of the test: Assay of activity on Ba/F3 cells (CTG, 72 h). The test is classed as cell-based. Particulars: read-out: IC50 (nM) Ba/F3 (EGFR^L858R/T790M/C797S). In outline:
as §12

Chain of EGFR^Del19/T790M/C797S (P00533 with tags, fused parts or gaps DEL746-750/T790M/C797S): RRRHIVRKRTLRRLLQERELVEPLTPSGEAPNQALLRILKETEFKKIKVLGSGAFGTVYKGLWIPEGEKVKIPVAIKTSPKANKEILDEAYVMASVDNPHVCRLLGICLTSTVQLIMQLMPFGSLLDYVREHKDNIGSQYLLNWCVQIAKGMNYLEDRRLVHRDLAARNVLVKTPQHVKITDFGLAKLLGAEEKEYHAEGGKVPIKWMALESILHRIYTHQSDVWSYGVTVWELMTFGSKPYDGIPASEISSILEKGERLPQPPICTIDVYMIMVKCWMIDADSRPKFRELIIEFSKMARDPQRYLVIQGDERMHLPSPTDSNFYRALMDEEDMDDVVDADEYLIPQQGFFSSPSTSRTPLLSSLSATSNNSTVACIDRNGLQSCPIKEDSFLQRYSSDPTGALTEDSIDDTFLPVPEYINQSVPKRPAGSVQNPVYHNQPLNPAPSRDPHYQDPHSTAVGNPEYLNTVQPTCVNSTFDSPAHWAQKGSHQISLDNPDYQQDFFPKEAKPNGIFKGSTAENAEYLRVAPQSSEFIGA
Chain of EGFR^L858R/T790M/C797S (P00533 25-1210 T790M/C797S/L858R): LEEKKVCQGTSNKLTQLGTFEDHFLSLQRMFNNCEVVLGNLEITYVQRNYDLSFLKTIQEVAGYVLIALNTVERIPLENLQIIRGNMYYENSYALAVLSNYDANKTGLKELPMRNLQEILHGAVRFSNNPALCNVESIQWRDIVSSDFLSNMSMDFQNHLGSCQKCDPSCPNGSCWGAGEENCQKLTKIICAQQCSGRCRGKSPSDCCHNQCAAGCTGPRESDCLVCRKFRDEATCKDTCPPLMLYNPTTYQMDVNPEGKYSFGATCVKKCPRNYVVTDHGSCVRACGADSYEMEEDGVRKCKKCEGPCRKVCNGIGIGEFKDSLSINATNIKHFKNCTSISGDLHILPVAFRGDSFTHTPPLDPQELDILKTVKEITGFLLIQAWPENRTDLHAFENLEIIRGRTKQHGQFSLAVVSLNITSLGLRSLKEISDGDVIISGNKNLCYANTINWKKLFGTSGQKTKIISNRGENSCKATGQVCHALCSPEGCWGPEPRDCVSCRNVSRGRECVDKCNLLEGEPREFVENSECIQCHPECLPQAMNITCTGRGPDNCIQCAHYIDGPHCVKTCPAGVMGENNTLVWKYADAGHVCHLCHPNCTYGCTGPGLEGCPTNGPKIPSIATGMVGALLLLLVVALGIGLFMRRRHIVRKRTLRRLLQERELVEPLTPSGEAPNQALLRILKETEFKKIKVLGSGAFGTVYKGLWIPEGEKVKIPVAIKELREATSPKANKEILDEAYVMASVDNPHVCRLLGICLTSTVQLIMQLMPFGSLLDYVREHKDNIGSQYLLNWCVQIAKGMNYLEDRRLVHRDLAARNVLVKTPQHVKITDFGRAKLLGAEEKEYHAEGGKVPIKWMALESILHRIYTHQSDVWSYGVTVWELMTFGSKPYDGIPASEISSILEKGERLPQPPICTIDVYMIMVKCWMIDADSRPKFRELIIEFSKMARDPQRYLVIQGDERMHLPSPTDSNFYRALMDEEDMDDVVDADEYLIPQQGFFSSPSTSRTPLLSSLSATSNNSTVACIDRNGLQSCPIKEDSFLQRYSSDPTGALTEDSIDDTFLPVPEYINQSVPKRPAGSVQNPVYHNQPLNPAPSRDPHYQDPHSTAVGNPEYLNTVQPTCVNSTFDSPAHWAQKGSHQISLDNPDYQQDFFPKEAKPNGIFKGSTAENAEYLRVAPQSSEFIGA
Chain of ALK^G1202R (Q9UM73 19-1620 G1202R): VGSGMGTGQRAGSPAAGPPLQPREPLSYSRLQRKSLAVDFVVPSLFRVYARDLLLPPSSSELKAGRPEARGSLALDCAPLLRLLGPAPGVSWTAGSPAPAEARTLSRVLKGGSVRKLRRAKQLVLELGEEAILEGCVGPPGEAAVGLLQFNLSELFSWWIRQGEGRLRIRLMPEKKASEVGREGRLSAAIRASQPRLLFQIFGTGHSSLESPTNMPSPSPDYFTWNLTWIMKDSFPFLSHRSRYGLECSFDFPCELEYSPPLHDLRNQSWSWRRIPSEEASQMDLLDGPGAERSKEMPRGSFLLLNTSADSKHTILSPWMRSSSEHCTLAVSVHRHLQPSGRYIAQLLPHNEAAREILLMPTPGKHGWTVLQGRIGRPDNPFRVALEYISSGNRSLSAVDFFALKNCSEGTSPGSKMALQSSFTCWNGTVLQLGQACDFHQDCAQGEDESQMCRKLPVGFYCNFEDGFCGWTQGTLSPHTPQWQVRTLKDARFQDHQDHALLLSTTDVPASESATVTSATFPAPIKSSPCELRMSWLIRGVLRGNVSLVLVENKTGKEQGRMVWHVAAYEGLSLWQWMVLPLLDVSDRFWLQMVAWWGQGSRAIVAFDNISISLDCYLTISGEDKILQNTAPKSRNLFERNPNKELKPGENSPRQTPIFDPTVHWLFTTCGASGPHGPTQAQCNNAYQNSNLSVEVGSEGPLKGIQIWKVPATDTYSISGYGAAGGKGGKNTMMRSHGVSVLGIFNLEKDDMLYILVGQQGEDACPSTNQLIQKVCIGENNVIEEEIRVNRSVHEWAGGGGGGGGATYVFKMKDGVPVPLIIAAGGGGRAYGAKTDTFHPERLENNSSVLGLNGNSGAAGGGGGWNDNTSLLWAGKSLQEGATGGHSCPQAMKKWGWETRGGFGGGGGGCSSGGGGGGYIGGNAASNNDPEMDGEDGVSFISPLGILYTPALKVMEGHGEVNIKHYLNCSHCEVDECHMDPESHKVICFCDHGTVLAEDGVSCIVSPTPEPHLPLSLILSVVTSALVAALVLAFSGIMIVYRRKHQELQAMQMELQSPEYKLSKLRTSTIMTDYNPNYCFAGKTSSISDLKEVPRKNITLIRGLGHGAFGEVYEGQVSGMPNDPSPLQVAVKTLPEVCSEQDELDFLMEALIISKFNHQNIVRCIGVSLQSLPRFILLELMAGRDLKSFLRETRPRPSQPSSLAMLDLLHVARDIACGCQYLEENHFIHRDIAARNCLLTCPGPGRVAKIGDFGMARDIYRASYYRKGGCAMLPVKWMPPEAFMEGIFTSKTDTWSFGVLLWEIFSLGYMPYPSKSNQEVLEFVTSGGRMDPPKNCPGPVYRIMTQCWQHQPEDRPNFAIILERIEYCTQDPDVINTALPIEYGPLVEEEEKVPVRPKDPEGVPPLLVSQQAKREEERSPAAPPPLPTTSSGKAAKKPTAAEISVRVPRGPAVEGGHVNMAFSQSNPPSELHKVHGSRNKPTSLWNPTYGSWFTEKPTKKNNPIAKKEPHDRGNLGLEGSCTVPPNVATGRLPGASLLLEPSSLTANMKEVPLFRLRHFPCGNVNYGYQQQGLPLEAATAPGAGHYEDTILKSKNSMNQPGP
Chain of ALK (Q9UM73 19-1620): as the sequence (Q9UM73 19-1620 G1202R) above, with R1184G counted along it
Chain of Ba/F3(EGFR^Del19/T790M/C797S) cells (P00533 with tags, fused parts or gaps DEL746-750/T790M/C797S): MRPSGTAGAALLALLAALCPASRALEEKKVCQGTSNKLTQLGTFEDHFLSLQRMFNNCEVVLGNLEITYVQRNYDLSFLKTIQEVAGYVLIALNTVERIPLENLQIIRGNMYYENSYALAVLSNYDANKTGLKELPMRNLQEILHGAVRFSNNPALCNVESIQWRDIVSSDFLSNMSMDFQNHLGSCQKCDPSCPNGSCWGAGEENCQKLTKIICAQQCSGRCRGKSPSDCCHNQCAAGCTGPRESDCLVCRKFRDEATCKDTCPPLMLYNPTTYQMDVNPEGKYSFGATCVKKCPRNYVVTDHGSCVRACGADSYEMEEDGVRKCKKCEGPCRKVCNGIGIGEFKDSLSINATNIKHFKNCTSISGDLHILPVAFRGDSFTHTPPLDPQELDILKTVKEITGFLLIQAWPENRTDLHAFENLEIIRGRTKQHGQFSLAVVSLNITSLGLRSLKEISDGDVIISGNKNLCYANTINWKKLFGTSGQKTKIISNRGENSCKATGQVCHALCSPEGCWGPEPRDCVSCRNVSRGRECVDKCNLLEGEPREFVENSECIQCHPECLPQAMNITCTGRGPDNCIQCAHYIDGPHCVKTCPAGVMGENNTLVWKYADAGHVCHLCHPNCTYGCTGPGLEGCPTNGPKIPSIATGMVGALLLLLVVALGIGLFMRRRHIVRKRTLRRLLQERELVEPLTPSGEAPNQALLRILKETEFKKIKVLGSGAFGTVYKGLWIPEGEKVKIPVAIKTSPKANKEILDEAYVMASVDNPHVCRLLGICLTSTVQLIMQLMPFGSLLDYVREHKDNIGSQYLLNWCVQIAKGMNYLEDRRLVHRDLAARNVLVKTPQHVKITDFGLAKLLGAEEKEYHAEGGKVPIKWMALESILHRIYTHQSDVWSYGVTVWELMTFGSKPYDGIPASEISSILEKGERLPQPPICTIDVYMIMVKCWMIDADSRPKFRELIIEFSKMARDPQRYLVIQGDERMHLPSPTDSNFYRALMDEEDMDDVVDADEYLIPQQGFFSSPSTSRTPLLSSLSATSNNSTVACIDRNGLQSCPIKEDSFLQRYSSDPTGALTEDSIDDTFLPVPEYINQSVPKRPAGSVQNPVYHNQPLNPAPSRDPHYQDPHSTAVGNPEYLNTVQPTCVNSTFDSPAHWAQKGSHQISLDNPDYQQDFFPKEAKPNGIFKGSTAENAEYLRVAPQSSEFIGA

As to `COc1cc(N2CCC(N3CCN(CCCCC#Cc4cccc5c4CN(C4CCC(=O)NC4=O)C5=O)CC3)CC2)ccc1Nc1ncc(Cl)c(Nc2ccccc2P(C)(C)=O)n1` (stereo not drawn) [Compound C116, 3-(4-(6-(4-(1-(4-((5-chloro-4-((2-(dimethylphosphoryl)phenyl)amino)pyrimidin-2-yl)amino)-3-methoxyphenyl)piperidin-4-yl)piperazin-1-yl)hex-1-yn-1-yl)-1-oxoisoindolin-2-yl)piperidine-2,6-dione], the IC50 at EGFR^Del19/T790M/C797S lay within 1 to 100 nM; at ALK, 1 to 100 nM; against ALK^G1202R it was 201 to 300 nM; on EGFR^L858R/T790M/C797S it was 1 to 100 nM. In addition, the GI50 (on Ba/F3(EML4-ALK) cells; in test [1]) was 1 to 100 nM in each case.
For the molecule `COc1cc(N2CCC(N3CCN(CCCCCC#Cc4cc(F)cc5c4CN(C4CCC(=O)NC4=O)C5=O)CC3)CC2)ccc1Nc1ncc(Cl)c(Nc2ccccc2P(C)(C)=O)n1` (stereo not drawn) [Compound C167, 3-(4-(7-(4-(1-(4-((5-chloro-4-((2-(dimethylphosphoryl)phenyl)amino)pyrimidin-2-yl)amino)-3-methoxyphenyl)piperidin-4-yl)piperazin-1-yl)hept-1-yn-1-yl)-6-fluoro-1-oxoisoindolin-2-yl)piperidine-2,6-dione], the IC50 at EGFR^Del19/T790M/C797S was in the range of 1 to 100 nM; against ALK, 1 to 100 nM; at ALK^G1202R, 201 to 300 nM; on EGFR^L858R/T790M/C797S, 1 to 100 nM. Besides, the GI50 (at Ba/F3(EML4-ALK) cells; in test [2]) was 1 to 100 nM throughout.
In the case of `COc1cc(N2CCC(N3CCN(CCCCCCC#Cc4cccc5c4CN(C4CCC(=O)NC4=O)C5=O)CC3)CC2)ccc1Nc1ncc(Cl)c(Nc2ccccc2P(C)(C)=O)n1` (stereo not drawn) [Compound C177, 3-(4-(8-(4-(1-(4-((5-chloro-4-((2-(dimethylphosphoryl)phenyl)amino)pyrimidin-2-yl)amino)-3-methoxyphenyl)piperidin-4-yl)piperazin-1-yl)oct-1-yn-1-yl)-1-oxoisoindolin-2-yl)piperidine-2,6-dione], the IC50 on EGFR^Del19/T790M/C797S was 1 to 100 nM; against ALK it was 1 to 100 nM; on ALK^G1202R it was 201 to 300 nM; on EGFR^L858R/T790M/C797S it was 1 to 100 nM. Also, the GI50 (on Ba/F3(EML4-ALK) cells; in test [1]) was 1 to 100 nM in each case.
In the case of `COc1cc(N2CCC(N3CCN(CCCCCCCC#Cc4cccc5c4CN(C4CCC(=O)NC4=O)C5=O)CC3)CC2)ccc1Nc1ncc(Cl)c(Nc2ccccc2P(C)(C)=O)n1` (stereo not drawn) [Compound C178, 3-(4-(9-(4-(1-(4-((5-chloro-4-((2-(dimethylphosphoryl)phenyl)amino)pyrimidin-2-yl)amino)-3-methoxyphenyl)piperidin-4-yl)piperazin-1-yl)non-1-yn-1-yl)-1-oxoisoindolin-2-yl)piperidine-2,6-dione], the IC50 on EGFR^Del19/T790M/C797S is 1 to 100 nM; against ALK it was 1 to 100 nM; against ALK^G1202R it was 201 to 300 nM; on EGFR^L858R/T790M/C797S, 1 to 100 nM. Besides, the GI50 (on Ba/F3(EML4-ALK) cells; in test [1]) was 1 to 100 nM throughout.
On to `COc1cc(N2CCC(N3CCN(CCCCC#Cc4ccc5c(c4)CN(C4CCC(=O)NC4=O)C5=O)CC3)CC2)ccc1Nc1ncc(Cl)c(Nc2ccccc2P(C)(C)=O)n1` (stereo not drawn) [Compound C192, 3-(5-(6-(4-(1-(4-((5-chloro-4-((2-(dimethylphosphoryl)phenyl)amino)pyrimidin-2-yl)amino)-3-methoxyphenyl)piperidin-4-yl)piperazin-1-yl)hex-1-yn-1-yl)-1-oxoisoindolin-2-yl)piperidine-2,6-dione], for which the IC50 on EGFR^Del19/T790M/C797S lay within 1 to 100 nM; against ALK, 1 to 100 nM; at ALK^G1202R it was 201 to 300 nM; on EGFR^L858R/T790M/C797S, 1 to 100 nM. The GI50 (on Ba/F3(EML4-ALK) cells; in test [1]) was 1 to 100 nM in each case.
